From EP0882016B1, “ALKYLATED STYRENES AS PRODRUGS TO COX-2 INHIBITORS” (Merck Frosst Canada & Co., priority 1996, dated 1997)

What was measured:
[1] = Rat plasma levels, per os pharmacokinetics in rats; format: in vivo, Male Sprague Dawley rats; conditions: maximum rat plasma concentration of the active COX-2 inhibitor (corresponding carbonyl compound) after 20 mg/kg oral dose of the indicated prodrug
Source text: The animals are housed, fed and cared for according to the Guidelines of the Canadian Council on Animal Care.
Male Sprague Dawley rats (325-375 g) are fasted overnight prior to each PO blood level study.
The rats are placed in the restrainer one at a time and the box is firmly secured. The zero blood sample is obtained by nicking a small (1 mm or less) piece off the tip of the tail. The tail is then stroked with a firm but gentle motion from the top to the bottom to milk out the blood. Approximately 1 mL of blood is collected into a heparinized vacutainer tube.
Compounds are prepared as required, in a standard dosing volume of 10mL/kg, and administered orally by passing a 16 gauge, 3" gavaging needle into the stomach.
Subsequent bleeds are taken in the same manner as the zero bleed except that there is no need to nick the tail again. The tail is cleaned with a piece of gauze and milked/stroked as described above into the appropriately labelled tubes.
Immediately after sampling, blood is centrifuged, separated, put into clearly marked vials and stored in a freezer until analysed.
Typical time points for determination of rat blood levels after PO dosing are: 0, 15min, 30min, 1h, 2h, 4h, 6h
After the 4hr time point bleed, food is provided to the rats ad libitum. Water is provided at all times during the study.
The following vehicles may be used in PO rat blood level determinations:
Compounds for PO blood levels can be in suspension form. For better dissolution, the solution can be placed in a sonicator for approximately 5 minutes.
For analysis, aliquots are diluted with an equal volume of acetonitrile and centrifuged to remove protein precipitate. The supernatant is injected directly onto a C-18 HPLC column with UV detection. Quantitation is done relative to a clean blood sample spiked with a known quantity of drug. Bioavailability (F) is assessed by comparing area under the curve (AUC) i.v. versus p.o. F =(AUCpo)/(AUCiv)x(DOSEiv)/(DOSEpo)x 100% [formula] […]

[2] = system: Rat Paw Edema; assay: Rat paw edema assay (carrageenan); format: in vivo, Male Sprague-Dawley rats; conditions: dose of prodrug, po, required to reduce edema formation by 50% as compared to the vehicle control
Method: Male Sprague-Dawley rats (150-200 g) are fasted overnight and are given, po, either vehicle (1% methocel or 5% Tween 80) or a test compound. One hr later, a line is drawn using a permanent marker at the level above the ankle in one hind paw to define the area of the paw to be monitored. The paw volume (V0) is measured using a plethysmometer (Ugo-Basile, Italy) based on the principle of water displacement. The animals are then injected subplantarly with 50 µl of 1% carrageenan solution in saline (FMC Corp, Maine) into the paw using an insulin syringe with a 25-gauge needle (i.e. 500 µg carrageenan per paw). Three hr later, the paw volume (V3) is measured and the increases in paw volume (V3 - VO) are calculated. The animals are sacrificed by CO2 asphyxiation and the absence or presence of stomach lesions scored. Data is compared with the vehicle-control values and percent inhibition calculated. All treatment groups are coded to eliminate observer bias.
Compounds of the present invention are prodrugs of inhibitors of COX-2 and are thereby useful in the treatment of COX-2 mediated diseases as enumerated above. The extent of conversion of these compounds to the active COX-2 inhibitors may be seen in the representative results shown in Table III along with their antiinflammatory activity. The plasma levels indicated are the maximum rat plasma concentrations of the active COX-2 inhibitor observed when the rat was treated with a 20 mg/kg oral dose of the indicated prodrug. The ED50 values in the rat paw edema assay represent the dose of prodrug required to reduce edema formation by 50% as compared to the vehicle control.

| Compound | Plasma Levels (µM)* [1] | Rat Paw Edema (ED50, mg/kg) [2] |
| --- | --- | --- |
| COC(=O)/C(=C(/c1ccc(S(C)(=O)=O)cc1)C(C)(C)OC)c1cccc(F)c1 [Example 6, Methyl 2-(3-fluorophenyl)-4-methoxy-4-methyl-3-(4-(methylsulfonyl)phenyl)-2-(Z)-pentenoate] | 6 µM | 2.1 mg/kg |
| COC(C)(C)/C(=C(\C(=O)N(C)C)c1cccc(F)c1)c1ccc(S(C)(=O)=O)cc1 [Example 4, N,N-Dimethyl-2-(3-fluorophenyl)-4-methoxy-4-methyl-3-(4-(methylsulfonyl)phenyl)-2-(Z)-pentenamide] | 10 µM | 1.6 mg/kg |
| CC(C)(O)/C(=C(\CO)c1cccc(F)c1)c1ccc(S(C)(=O)=O)cc1 [Example 1, 2-(3-Fluorophenyl)-4-methyl-3-(4-(methylsulfonyl)-phenyl)-2-(Z)-penten-1,4-diol] | 3.5 µM | 10 mg/kg |
